Data as given in patent US20110087015A1, “Nucleoside and nucleotide having an unnatural base and use thereof” (priority 2003, published 2011).
“Also recorded” adds a separate entry of the source. Read-outs that look alike come from different tables or passages of the source.

Legend:
[1] = target: T1, Klenow fragment (Large Fragment E. coli DNA Polymerase I) (Escherichia coli, UniProt P00582); test: Klenow fragment-mediated elongation reaction (replication); format: biochemical; conditions: substrates A; for replication with two adjacent unnatural bases in template (35-mer product): G, y, NN=vv or NN=ss
T1 construct: purchased TaKaRa
T1 sequence (P00582 324-928): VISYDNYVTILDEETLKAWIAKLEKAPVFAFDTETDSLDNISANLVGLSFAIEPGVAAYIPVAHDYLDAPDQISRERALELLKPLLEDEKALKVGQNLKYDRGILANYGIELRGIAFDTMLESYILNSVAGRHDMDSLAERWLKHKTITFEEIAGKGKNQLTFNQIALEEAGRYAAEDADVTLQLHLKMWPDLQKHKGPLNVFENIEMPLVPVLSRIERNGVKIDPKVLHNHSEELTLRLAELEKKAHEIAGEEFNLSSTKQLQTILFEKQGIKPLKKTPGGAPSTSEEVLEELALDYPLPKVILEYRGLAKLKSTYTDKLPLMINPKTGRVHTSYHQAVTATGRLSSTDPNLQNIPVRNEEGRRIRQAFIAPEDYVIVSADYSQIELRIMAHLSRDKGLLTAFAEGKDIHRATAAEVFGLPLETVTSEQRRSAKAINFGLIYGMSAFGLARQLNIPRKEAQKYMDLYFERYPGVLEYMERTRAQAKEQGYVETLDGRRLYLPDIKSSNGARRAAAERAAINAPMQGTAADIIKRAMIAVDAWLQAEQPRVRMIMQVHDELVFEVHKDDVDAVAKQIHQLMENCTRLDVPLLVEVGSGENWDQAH
Text: This example was intended to study selective introduction of y at a site corresponding to v in the complementary DNA strand during Klenow fragment-mediated elongation reaction, rather than single-base incorporation. The reaction primer DNA and template DNA used are shown below.
As in the case of Example 2, the primer was pre-labeled at its 5′-end using […] and then purified by gel electrophoresis. In Experiments 2 and 3, the base y is incorporated as the first base of elongation from the primer. In contrast, in this experiment, v in the template is located at a position corresponding to the severalth base elongated from the primer, and it is therefore possible to study the introduction of y at a site corresponding to v in the complementary DNA strand during elongation reaction.
The template DNA (400 nM) and the primer whose 5′-end was labeled with ^32P (FIG. 11) (400 nM), each of which had been dissolved in 2× reaction buffer (20 mM Tris-HCl pH 7.5, 14 mM MgCl2, 0.2 mM DTT), were heated at 95° C. for 3 minutes and then annealed by quenching to form a duplex. After this duplex DNA solution was dispensed in 5 μl aliquots, 2 μl of a dNTP solution (a combination shown in each lane of FIG. 12 or 13) (50 μM) and 3 μl (0.15 units) of Klenow fragment (KF exo^+; Cloned Klenow Fragment for sequencing (Large Fragment E. coli DNA Polymerase I), purchased from TaKaRa) diluted with water were added to start the enzymatic reaction at 37° C. After incubation for 3 minutes, the enzymatic reaction was stopped by adding 10 μl of a 10 M urea-containing TBE solution and heating at 75° C. for 3 minutes. The reaction conditions are summarized as follows: template/primer 200 nM; KF […] 0.015U/μl; dNTPs 10 μM; reaction at 37° C. for 3 minutes.
Aliquot parts of the reaction solutions were electrophoresed on a 15% polyacrylamide-7 M urea gel and the reaction products were analyzed with a bioimaging analyzer (BAS2500, Fuji Photo Film Co., Ltd., Japan). […]

[2] = target: T2, Klenow fragment (KF exo−) (Escherichia coli, UniProt P00582, D355A/E357A); format: biochemical, E. coli; conditions: for efficiency (Vmax/Km) / Km / Vmax: template base N = label; for Vmax: normalized to enzyme concentration 20 nM
T2 construct: Large fragment of DNA polymerase Exonuclease-free Klenow enzyme (Cloned) (Amersham USB); purchased Amersham USB
T2 sequence (P00582 324-928 D355A/E357A): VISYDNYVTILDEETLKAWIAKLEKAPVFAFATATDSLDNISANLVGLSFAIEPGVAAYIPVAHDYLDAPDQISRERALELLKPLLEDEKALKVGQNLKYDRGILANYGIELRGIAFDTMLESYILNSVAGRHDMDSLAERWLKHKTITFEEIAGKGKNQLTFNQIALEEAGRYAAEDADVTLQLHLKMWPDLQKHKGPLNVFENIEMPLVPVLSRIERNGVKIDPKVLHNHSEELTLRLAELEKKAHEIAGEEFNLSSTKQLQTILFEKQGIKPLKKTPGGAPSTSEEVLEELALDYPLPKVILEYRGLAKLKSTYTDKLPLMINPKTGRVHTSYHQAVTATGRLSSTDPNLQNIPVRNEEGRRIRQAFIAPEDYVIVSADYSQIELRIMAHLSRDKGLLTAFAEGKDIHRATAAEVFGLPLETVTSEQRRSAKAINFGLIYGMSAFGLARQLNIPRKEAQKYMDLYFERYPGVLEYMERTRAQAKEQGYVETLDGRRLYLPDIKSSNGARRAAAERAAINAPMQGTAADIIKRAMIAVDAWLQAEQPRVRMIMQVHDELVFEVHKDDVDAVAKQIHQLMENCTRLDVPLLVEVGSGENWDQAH
Text: This example was intended to analyze reaction rate constants in the same Klenow fragment-mediated single nucleotide insertion reaction as shown in Example 2.
More specifically, the reaction primer used was a primer whose 5′-end was fluorescently labeled with 6-FAM (SEQ ID NO: 1, FIG. 10). The primer whose 5′-end was fluorescently labeled was purchased from Applied Biosystems among those commercially available as custom fluorescent primers for GeneScan, and purified by gel electrophoresis. The analysis of reaction products was performed with a DNA sequencer (Applied Biosystems; model ABI377).
Reaction conditions: Template DNA (SEQ ID NO: 2 or 3) (10 μM) and the fluorescently-labeled primer (10 μM), each of which had been dissolved in 2× reaction buffer (100 mM Tris-HCl pH 7.5, 20 mM MgCl2, 2 mM DTT, 100 μg/ml BSA), were heated at 95° C. for 3 minutes and then annealed by quenching to form a duplex between the template and the primer. After this duplex DNA solution was dispensed in 5 μl aliquots, a KF exo^− solution (15-250 nM) diluted with enzyme dilution buffer was added in a volume of 2 μl, followed by incubation at 37° C. for 2 minutes to form a DNA-enzyme complex. The resulting solution was supplemented with 3 μl dNTP solution (any one of A, G, C, T or y) (100 μM-7 mM) and enzymatically reacted at 37° C. (1.5-20 minutes). The reaction was stopped by adding 10 μl of a 95% formamide solution containing 20 mM EDTA (stop solution) and heating at 75° C. for 3 minutes.
The reaction conditions are summarized as follows: 5 μM template-primer duplex, 3-50 nM enzyme and 30-2100 μM dNTP are used in a solution (10 μl). The solution (10 μl) contains 50 mM Tris-HCl (pH 7.5), 10 mM MgCl2, 1 mM DTT and 0.05 mg/ml BSA. The reaction is performed at 37° C. for 1.5-20 minutes.
After aliquot parts of the reaction solutions were diluted 50-fold with the stop solution, the thus diluted reaction solutions (0.5 μl) were each mixed with 3 μl loading solution (deionized formamide:50 mg/mL blue dextran solution containing 25 mM EDTA=5:1), heated at 90° C. for 2 minutes and then quenched on ice. Aliquots (about 0.5 μl) of the resulting solutions were loaded on every other lane of a sequence gel and electrophoresed. The sequence gel (36 cm WTR) has the following composition: 6 M urea, 8% polyacrylamide (acrylamide:bisacrylamide=19:1), and 0.5×TBE. The electrophoresis buffer used was 0.5×TBE. The run module used was GS Run 36C-2400. The electrophoresis time was set to about 1 hour, and peak patterns of the reaction products were analyzed and quantified using GeneScan Software (Version 3.0).
Using the peak heights of the unreacted primer fragment and single nucleotide-inserted DNA fragments, the percentage of each primer elongated by a single nucleotide was determined to calculate enzymological parameters Km and Vmax from Hanes-Woolf plots (Goodman, M. F., Creighton, S., Bloom, L. B., Petruska, J. Crit. Rev. Biochem. Mol. Biol., 28, 83-126 (1993)).

T7 RNA polymerase = target: T3, T7 RNA polymerase (Escherichia phage T7, UniProt P00573); test: Site-selective introduction of ryTP into RNA through transcription; format: biochemical; conditions: for incorporation efficiency of the substrate y into RNA (transcription efficiency): one unnatural base in template (vT or sT), compared to natural base pairing (AT); for transcription efficiency, two y substrates incorporated into RNA: two adjacent unnatural bases in template (NN=vv or NN=ss)
T3 construct: purchased TAKARA SHUZO CO., LTD (TaKaRa)
T3 sequence (P00573 whole entry): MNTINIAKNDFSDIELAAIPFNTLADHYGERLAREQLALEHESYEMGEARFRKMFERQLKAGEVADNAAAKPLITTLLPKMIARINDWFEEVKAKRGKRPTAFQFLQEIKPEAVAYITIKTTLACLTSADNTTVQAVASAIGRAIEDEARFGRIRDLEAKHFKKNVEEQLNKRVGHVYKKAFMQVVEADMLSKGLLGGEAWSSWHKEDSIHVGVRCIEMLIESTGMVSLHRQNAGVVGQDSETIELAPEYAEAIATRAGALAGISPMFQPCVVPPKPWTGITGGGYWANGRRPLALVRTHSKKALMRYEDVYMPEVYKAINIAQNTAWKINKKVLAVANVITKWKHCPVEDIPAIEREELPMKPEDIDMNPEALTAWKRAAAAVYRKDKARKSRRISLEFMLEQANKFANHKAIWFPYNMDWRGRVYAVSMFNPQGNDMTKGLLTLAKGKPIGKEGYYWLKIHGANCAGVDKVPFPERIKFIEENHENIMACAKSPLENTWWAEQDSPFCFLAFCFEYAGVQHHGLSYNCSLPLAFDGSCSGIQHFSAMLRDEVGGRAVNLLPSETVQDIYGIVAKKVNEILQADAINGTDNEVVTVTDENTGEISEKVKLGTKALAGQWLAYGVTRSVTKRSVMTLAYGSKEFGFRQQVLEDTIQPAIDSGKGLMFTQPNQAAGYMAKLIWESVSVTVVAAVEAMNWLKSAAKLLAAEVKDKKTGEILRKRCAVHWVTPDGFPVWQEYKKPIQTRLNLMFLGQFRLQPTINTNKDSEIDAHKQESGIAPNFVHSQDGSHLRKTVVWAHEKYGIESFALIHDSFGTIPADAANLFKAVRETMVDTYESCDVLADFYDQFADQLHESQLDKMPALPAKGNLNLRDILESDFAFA
Procedure: This example was intended to study site-selective introduction of ryTP into RNA through transcription reaction. […] The DNA primer required for the transcription reaction had the following sequence.
A template and T7prim21 were mixed in 10 mM Tris-HCl (pH 7.6) containing 10 mM NaCl and annealed into a double-stranded form for use in the transcription reaction (FIG. 14). The T7 transcription reaction was performed on 20 μl scale using an enzyme from TAKARA SHUZO CO., LTD [T. Ohtsuki et al., Proc. Natl. Acad. Sci. USA, 98, 4922-4925 (2001)]. More specifically, the transcription reaction was accomplished by incubation at 37° C. for 3 hours in a reaction solution containing 40 mM Tris-HCl pH 8.0, 5 mM DTT, 24 mM MgCl2, 2 mM spermidine, 0.01% TritonX-100, 10 mM GMP, 1 mM NTPs (N=G, C, U, with or without ryTP, as shown in FIGS. 15 and 16), 2 μCi [α-^32P]ATP, 2 μM double-stranded DNA (template and T7prim21), and 2.5 U/μl T7 RNA polymerase (TaKaRa). If the transcription reaction proceeds completely, an RNA product having the following full-length sequence can be obtained.
The reaction solutions were each supplemented with an equal volume of a 10 M urea-containing BPBdye solution and heated at 75° C. for 3 minutes to stop the reaction, followed by electrophoresis on a 20% polyacrylamide-7 M urea gel to confirm products of the transcription reaction. The [α-^32P]ATP-labeled reaction products were analyzed with a bioimaging analyzer (BAS2500, Fuji Photo Film Co., Ltd., Japan). The incorporation efficiency of the substrate y into RNA when using the sT-containing template in transcription with T7 RNA polymerase (FIG. 14) was about 50% to 60%, as compared to natural base pairing (AT). In contrast, when using the vT-containing template, the incorporation efficiency of the substrate y was 96%, which was as high as that of natural base pairing (FIG. 15).

[3] = target: T4, Klenow fragment (KF exo−), DNA polymerase I lacking 3′→5′ exonuclease activity (Escherichia coli, UniProt P00582, D355A/E357A); test: Klenow fragment-mediated single nucleotide insertion experiment (replication); format: biochemical, E. coli
T4 construct: Large fragment of DNA polymerase Exonuclease-free Klenow enzyme (Cloned) (Amersham USB); purchased Amersham USB
T4 sequence (P00582 324-928 D355A/E357A): as the sequence (P00582 324-928 D355A/E357A) above
Text: In this example, E. coli-derived DNA polymerase I lacking 3′→5′ exonuclease activity, i.e., Klenow fragment (KF exo^−) was used to make a comparison of the efficiency for single nucleotide incorporation during replication (i.e., incorporation of 2-oxo-(1H)pyridine (y) into DNA) between v-y base pair (the present invention) and s-y base pair (control).
More specifically, Large fragment of DNA polymerase Exonuclease-free Klenow enzyme (Cloned) (Amersham USB) and 10× reaction buffer attached thereto (500 mM Tris-HCl pH 7.5, 100 mM MgCl2, 10 mM DTT, 0.5 mg/ml BSA) were used. The enzyme concentration of KF exo^− was determined using a Bio-Rad Protein Assay kit (BioRad) for each lot purchased.
The primer for use in the reaction was pre-labeled at its 5′-end using T4 polynucleotide kinase (TaKaRa) and […], and then purified by gel electrophoresis.
Reaction conditions: a mixed solution of template DNA (20 μM, 1 μl), the primer whose 5′-end was labeled with ^32P (5 μM, 4 μl) and 10× reaction buffer (1 μl) was heated at 95° C. for 3 minutes and then annealed by quenching to form a duplex between the template DNA and the primer. A Klenow fragment solution (1 μM) diluted with enzyme dilution buffer (50 mM phosphate buffer pH 7, 50% glycerol, 1 mM DTT) was added in a volume of 2 μl and incubated at 37° C. for 2 minutes, followed by addition of 2 μl dNTP solution (any one of A, G, C, T or y shown in FIG. 8) (100 μM) to start the reaction. After incubation at 37° C. for 2 minutes, 10 μl of a 10 M urea-containing TBE solution was added and heated at 75° C. for 3 minutes to stop the reaction. The reaction conditions are summarized as follows: template/primer 2 μM; KF exo^− 200 nM; dNTP 20 μM; reaction at 37° C. for 2 minutes.
Aliquot parts of the reaction solutions were electrophoresed on a 20% polyacrylamide-7 M urea gel and the reaction products were analyzed with a bioimaging analyzer (BAS2500, Fuji Photo Film Co., Ltd., Japan).

[4] = template/primer 2 μM, KF exo− 200 nM, dNTP 20 μM, 37° C., 2 minutes

Row | SMILES | replication with two adjacent unnatural bases in template (35-mer product) [1] | efficiency (Vmax/Km) ([2]; N′ = A) | Vmax ([2]; N′ = A, SD in parentheses) | efficiency (Vmax/Km) ([2]; N′ = C) | Vmax ([2]; N′ = C, SD in parentheses) | efficiency (Vmax/Km) ([2]; N′ = T) | Vmax ([2]; N′ = T, SD in parentheses) | efficiency (Vmax/Km) ([2]; N′ = y) | Vmax ([2]; N′ = y, SD in parentheses) | incorporation efficiency of the substrate y into RNA (transcription efficiency) (T7 RNA polymerase) | transcription efficiency, two y substrates incorporated into RNA (T7 RNA polymerase) | other results
1 | Nc1nc(-c2cccs2)c2[nH]cnc2n1 [s, 2-amino-6-thienylpurine, reference compound] | little 35-mer product was obtained; also recorded: little incorporation of y | 3.0 × 10^3 % min^−1M^−1 | 0.26(0.06) % min^−1 | 2.5 × 10^4 % min^−1M^−1 | 15(5) % min^−1 | 9.4 × 10^3 % min^−1M^−1 | 3.0(0.3) % min^−1 | 3.6×10^4 % min^−1M^−1 | 9.4(2.5) % min^−1 | 50-60% | no RNA incorporating two y was obtained | Km ([2]; N′ = A, SD in parentheses): 86 µM; Km ([2]; N′ = C, SD in parentheses): 590 µM; Km ([2]; N′ = T, SD in parentheses): 320 µM; Km ([2]; nucleoside triphosphate N′ = y, standard deviation in parentheses): 260 µM
2 | Nc1nc(-c2nccs2)c2[nH]cnc2n1 [v, 2-amino-6-(2-thiazolyl)purine] | allows replication to proceed | 3.3 × 10^3 % min^−1M^−1 | 0.36(0.08) % min^−1 | 4.1×10^4 % min^−1M^−1 | 22(5) % min^−1 | 5.1×10^3 % min^−1M^−1 | 2.0(0.7) % min^−1 | 1.4×10^5 % min^−1M^−1 | 40(21) % min^−1 | 96% | about 30% | incorporation selectivity opposite y ([3]; compared with s): comparable to the selectivity of s; incorporation of C opposite the template base [3, 4]: also incorporated although in a small amount; incorporation of y at the site corresponding to the template base [3, 4]: selectively incorporated; replication efficiency in elongation reaction (35-mer band intensity) ([1]; G and y, one unnatural base in template (NN=vT vs NN=sT)): higher replication efficiency than the s-y base pair; incorporation efficiency of y opposite v relative to y opposite s ([2]; ratio of Vmax/Km): about 4 fold; incorporation efficiency of y opposite v relative to C incorporation ([2]; selectivity, ratio of Vmax/Km): about 3 fold; incorporation efficiency of y opposite v relative to T incorporation ([2]; selectivity, ratio of Vmax/Km): ≥ 20 fold
